#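 Compound exposure: 48 hours, 5 concentrations, 96-well plates. GI50 = concentration required for 50% inhibition of growth.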 Calls of active or inactive are those of the source. Rule as the data show it: active = GI50 up to about 1.1 µM and inactive = higher.
# Tests used:
# Experiment in all cases: NCI-60 cell line screen, 48 h
# 786-0 = system: 786-0
# A498 = system: A498
# A549 = system: A549
# ACHN = system: ACHN
# BT-549 = system: BT-549
# CAKI-1 = system: CAKI-1
# CCRF-CEM = system: CCRF-CEM
# COLO 205 = system: COLO 205
# DU-145 = system: DU-145
# EKVX = system: EKVX
# HCC 2998 = system: HCC 2998
# HCT-116 = system: HCT-116
# HCT-15 = system: HCT-15
# HL-60 = system: HL-60
# HOP-62 = system: HOP-62
# HOP-92 = system: HOP-92
# HT-29 = system: HT-29
# Hs-578T = system: Hs-578T
# IGROV-1 = system: IGROV-1
# K562 = system: K562
# KM12 = system: KM12
# LOX IMVI = system: LOX IMVI
# M14 = system: M14
# MCF7 = system: MCF7
# MDA-MB-231 = system: MDA-MB-231
# MDA-MB-435 = system: MDA-MB-435
# MOLT-4 = system: MOLT-4
# NCI-H226 = system: NCI-H226
# NCI-H23 = system: NCI-H23
# NCI-H522 = system: NCI-H522
# NCI/ADR-RES = system: NCI/ADR-RES
# OVCAR-3 = system: OVCAR-3
# OVCAR-4 = system: OVCAR-4
# OVCAR-5 = system: OVCAR-5
# OVCAR-8 = system: OVCAR-8
# PC-3 = system: PC-3
# RPMI-8226 = system: RPMI-8226
# RXF 393 = system: RXF 393
# SF-268 = system: SF-268
# SF-295 = system: SF-295
# SF-539 = system: SF-539
# SK-MEL-28 = system: SK-MEL-28
# SK-MEL-2 = system: SK-MEL-2
# SK-MEL-5 = system: SK-MEL-5
# SK-OV-3 = system: SK-OV-3
# SN12C = system: SN12C
# SNB-19 = system: SNB-19
# SNB-75 = system: SNB-75
# SR = system: SR
# SW-620 = system: SW-620
# T47D = system: T47D
# TK-10 = system: TK-10
# U-251 = system: U-251
# UACC-257 = system: UACC-257
# UACC-62 = system: UACC-62
# UO-31 = system: UO-31
# Malme-3M = system: Malme-3M
# NCI-H460 = system: NCI-H460
structure (smiles),measurement,setting,value
C=C1CC[C@](C)(O)[C@@]2(C)CC[C@H]3C(=C(C)C)C(=O)C[C@]3(C)C[C@H]12,GI50,786-0,14.6 µM (inactive)
same,GI50,A498,> 50 µM (inactive)
same,GI50,A549,42.6 µM (inactive)
same,GI50,ACHN,42.8 µM (inactive)
same,GI50,BT-549,25.8 µM (inactive)
same,GI50,CAKI-1,22.4 µM (inactive)
same,GI50,CCRF-CEM,10.9 µM (inactive)
same,GI50,COLO 205,36.1 µM (inactive)
same,GI50,DU-145,> 50 µM (inactive)
same,GI50,EKVX,> 50 µM (inactive)
same,GI50,HCC 2998,23 µM (inactive)
same,GI50,HCT-116,14.8 µM (inactive)
same,GI50,HCT-15,14.9 µM
same,GI50,HL-60,7.6 µM (inactive)
same,GI50,HOP-62,> 50 µM (inactive)
same,GI50,HOP-92,> 50 µM (inactive)
same,GI50,HT-29,18.3 µM (inactive)
same,GI50,Hs-578T,> 50 µM (inactive)
same,GI50,IGROV-1,14.7 µM (inactive)
same,GI50,K562,8.73 µM (inactive)
same,GI50,KM12,21 µM (inactive)
same,GI50,LOX IMVI,10.4 µM (inactive)
same,GI50,M14,37.5 µM (inactive)
same,GI50,MCF7,28.4 µM (inactive)
same,GI50,MDA-MB-231,> 50 µM (inactive)
same,GI50,MDA-MB-435,17.5 µM (inactive)
same,GI50,MOLT-4,10.9 µM (inactive)
same,GI50,NCI-H226,> 50 µM (inactive)
same,GI50,NCI-H23,> 50 µM (inactive)
same,GI50,NCI-H522,14.3 µM (inactive)
same,GI50,NCI/ADR-RES,27.7 µM (inactive)
same,GI50,OVCAR-3,29.9 µM (inactive)
same,GI50,OVCAR-4,> 50 µM (inactive)
same,GI50,OVCAR-5,> 50 µM (inactive)
same,GI50,OVCAR-8,> 50 µM (inactive)
same,GI50,PC-3,21.1 µM (inactive)
same,GI50,RPMI-8226,17.9 µM (inactive)
same,GI50,RXF 393,18.2 µM (inactive)
same,GI50,SF-268,> 50 µM (inactive)
same,GI50,SF-295,> 50 µM (inactive)
same,GI50,SF-539,> 50 µM (inactive)
same,GI50,SK-MEL-28,43.7 µM (inactive)
same,GI50,SK-MEL-2,> 50 µM (inactive)
same,GI50,SK-MEL-5,22.1 µM (inactive)
same,GI50,SK-OV-3,> 50 µM (inactive)
same,GI50,SN12C,> 50 µM (inactive)
same,GI50,SNB-19,> 50 µM (inactive)
same,GI50,SNB-75,29 µM (inactive)
same,GI50,SR,13.4 µM (inactive)
same,GI50,SW-620,21.6 µM (inactive)
same,GI50,T47D,26.5 µM (inactive)
same,GI50,TK-10,> 50 µM (inactive)
same,GI50,U-251,> 50 µM (inactive)
same,GI50,UACC-257,> 50 µM (inactive)
same,GI50,UACC-62,16.5 µM (inactive)
same,GI50,UO-31,20 µM (inactive)
N#CC1C(=O)NC2=C(CCOc3c2ccc2ccccc32)C1c1ccc(F)cc1 (stereo not drawn),GI50,786-0,17.7 µM (inactive)
same,GI50,A498,19.7 µM (inactive)
same,GI50,A549,25.2 µM (inactive)
same,GI50,ACHN,13.3 µM (inactive)
same,GI50,BT-549,60 µM (inactive)
same,GI50,CAKI-1,31.5 µM (inactive)
same,GI50,CCRF-CEM,28.4 µM (inactive)
same,GI50,COLO 205,61 µM (inactive)
same,GI50,DU-145,29.1 µM (inactive)
same,GI50,EKVX,36 µM (inactive)
same,GI50,HCC 2998,23.9 µM (inactive)
same,GI50,HCT-116,14 µM (inactive)
same,GI50,HCT-15,38.5 µM
same,GI50,HL-60,> 100 µM (inactive)
same,GI50,HOP-62,18.5 µM (inactive)
same,GI50,HOP-92,7.46 µM (inactive)
same,GI50,Hs-578T,16.2 µM (inactive)
same,GI50,IGROV-1,17.3 µM (inactive)
same,GI50,K562,> 100 µM (inactive)
same,GI50,KM12,67.5 µM (inactive)
same,GI50,M14,26.1 µM (inactive)
same,GI50,MCF7,36.7 µM (inactive)
same,GI50,MDA-MB-435,40.9 µM (inactive)
same,GI50,MOLT-4,37.6 µM (inactive)
same,GI50,Malme-3M,27.8 µM (inactive)
same,GI50,NCI-H23,23.4 µM (inactive)
same,GI50,NCI-H460,29.9 µM (inactive)
same,GI50,NCI-H522,37.1 µM (inactive)
same,GI50,NCI/ADR-RES,14.9 µM (inactive)
same,GI50,OVCAR-3,21.1 µM (inactive)
same,GI50,OVCAR-4,31.8 µM (inactive)
same,GI50,OVCAR-5,23.5 µM (inactive)
same,GI50,OVCAR-8,33.3 µM (inactive)
same,GI50,PC-3,19.3 µM (inactive)
same,GI50,RXF 393,15 µM (inactive)
same,GI50,SF-268,22.4 µM (inactive)
same,GI50,SF-295,20.4 µM (inactive)
same,GI50,SF-539,44.8 µM (inactive)
same,GI50,SK-MEL-2,29.8 µM (inactive)
same,GI50,SK-MEL-5,21.5 µM (inactive)
same,GI50,SK-OV-3,24.8 µM (inactive)
same,GI50,SN12C,10.8 µM (inactive)
same,GI50,SNB-19,20 µM (inactive)
same,GI50,SNB-75,20.2 µM (inactive)
same,GI50,SW-620,31 µM (inactive)
same,GI50,T47D,27.4 µM (inactive)
same,GI50,TK-10,23.4 µM (inactive)
same,GI50,U-251,12.3 µM (inactive)
same,GI50,UACC-257,> 100 µM (inactive)
same,GI50,UO-31,12.1 µM (inactive)
COC(=O)C1=C(C(=O)OC)SC2(S1)C(C(=O)OC)=C(C(=O)OC)Sc1c2ss/c1=N/C(C)(C)C,GI50,786-0,1.31 µM (inactive)
same,GI50,A498,1.92 µM (inactive)
same,GI50,A549,2.43 µM (inactive)
same,GI50,ACHN,1.74 µM (inactive)
same,GI50,BT-549,2.07 µM (inactive)
same,GI50,CAKI-1,1.53 µM (inactive)
same,GI50,CCRF-CEM,0.345 µM (active)
same,GI50,COLO 205,1.45 µM (inactive)
same,GI50,DU-145,0.877 µM (active)
same,GI50,EKVX,1.49 µM (inactive)
same,GI50,HCC 2998,1.08 µM (active)
same,GI50,HCT-116,0.769 µM (active)
same,GI50,HCT-15,0.622 µM
same,GI50,HL-60,0.753 µM (active)
same,GI50,HOP-62,3.72 µM (inactive)
same,GI50,HOP-92,1.3 µM (inactive)
same,GI50,HT-29,1.17 µM (inactive)
same,GI50,Hs-578T,4.32 µM (inactive)
same,GI50,IGROV-1,1.4 µM (inactive)
same,GI50,K562,2.21 µM (inactive)
same,GI50,KM12,1.57 µM (inactive)
same,GI50,LOX IMVI,1.04 µM (active)
same,GI50,M14,1.66 µM (inactive)
same,GI50,MCF7,1.26 µM (inactive)
same,GI50,MDA-MB-231,1.64 µM (inactive)
same,GI50,MDA-MB-435,1.55 µM (inactive)
same,GI50,MOLT-4,0.417 µM (active)
same,GI50,Malme-3M,2.18 µM (inactive)
same,GI50,NCI-H226,3.18 µM (inactive)
same,GI50,NCI-H23,2.23 µM (inactive)
same,GI50,NCI-H460,0.533 µM (active)
same,GI50,NCI-H522,0.555 µM (active)
same,GI50,NCI/ADR-RES,2.5 µM (inactive)
same,GI50,OVCAR-3,1.67 µM (inactive)
same,GI50,OVCAR-4,1.79 µM (inactive)
same,GI50,OVCAR-5,1.87 µM (inactive)
same,GI50,OVCAR-8,1.71 µM (inactive)
same,GI50,PC-3,1.26 µM (inactive)
same,GI50,RXF 393,0.541 µM (active)
same,GI50,SF-268,1.86 µM (inactive)
same,GI50,SF-295,14.1 µM (inactive)
same,GI50,SF-539,1.27 µM (inactive)
same,GI50,SK-MEL-28,2.07 µM (inactive)
same,GI50,SK-MEL-2,1.34 µM (inactive)
same,GI50,SK-MEL-5,1.91 µM (inactive)
same,GI50,SK-OV-3,5.18 µM (inactive)
same,GI50,SN12C,1.22 µM (inactive)
same,GI50,SNB-19,2.13 µM (inactive)
same,GI50,SNB-75,1.45 µM (inactive)
same,GI50,SR,0.366 µM (active)
same,GI50,SW-620,0.622 µM (active)
same,GI50,T47D,1.41 µM (inactive)
same,GI50,TK-10,1.64 µM (inactive)
same,GI50,U-251,1.72 µM (inactive)
same,GI50,UACC-257,1.47 µM (inactive)
same,GI50,UACC-62,1.56 µM (inactive)
same,GI50,UO-31,1.92 µM (inactive)

# From ChEMBL document CHEMBL1201862, “PubChem BioAssay data set” (2004)
